Measured values published in ChEMBL document CHEMBL5647694, “Novel orally bioavailable EZH1/2 dual inhibitors with greater antitumor efficacy than an EZH2 selective inhibitor” (Cancer Sci, 2017).

Tests used:
[1] = target: Focal adhesion kinase 1 (Homo sapiens) (UniProt Q05397); experiment: Inhibition of N-terminal GST-fused truncated human FAK (376 to 1052 residues) expressed in baculovirus-infected Sf21 cells using Blk/Lyntide as substrate at 1 uM in presence of ATP by Mobility shift assay
[2] = target: Tyrosine-protein kinase Fer (Homo sapiens) (UniProt P16591); experiment: Inhibition of N-terminal GST-fused full length human FER (1 to 822 residues) expressed in baculovirus-infected Sf21 cells using Srctide as substrate at 1 uM in presence of ATP by Mobility shift assay
[3] = target: Tyrosine-protein kinase Fes/Fps (Homo sapiens) (UniProt P07332); experiment: Inhibition of N-terminal GST-fused full length human FES (1 to 413, 416 to 822 residues) expressed in baculovirus-infected Sf21 cells using Srctide as substrate at 1 uM in presence of ATP by Mobility shift assay
[4] = target: Tyrosine-protein kinase Yes (Homo sapiens) (UniProt P07947); experiment: Inhibition of N-terminal GST-tagged full length human YES (1 to 543 residues) expressed in baculovirus-infected Sf21 cells using Srctide as substrate at 1 uM in presence of ATP by Mobility shift assay
[5] = target: Serine/threonine-protein kinase BRSK1 (Homo sapiens) (UniProt Q8TDC3); experiment: Inhibition of N-terminal GST-tagged full length human BRSK1 (1 to 778 residues) expressed in baculovirus-infected Sf21 cells using CHKtide as substrate at 1 uM in presence of ATP by Mobility shift assay
[6] = target: Calcium/calmodulin-dependent protein kinase type II subunit delta (Homo sapiens) (UniProt Q13557); experiment: Inhibition of N-terminal GST-tagged full length human CAMK2d (1 to 478 residues) expressed in baculovirus-infected Sf21 cells using GS peptide as substrate at 1 uM in presence of ATP by Mobility shift assay
[7] = target: Calcium/calmodulin-dependent protein kinase type IV (Homo sapiens) (UniProt Q16566); experiment: Inhibition of N-terminal GST-tagged full length human CAMK4 (1 to 473 residues) expressed in baculovirus-infected Sf21 cells using GS peptide as substrate at 1 uM in presence of ATP by Mobility shift assay
[8] = target: CDK9/cyclin T1 (Homo sapiens) (UniProt O60563+P50750); experiment: Inhibition of N-terminal GST-fused full length human CDK9 (1 to 372 residues)/human His-CyclinT1 (1 to 726 residues) expressed in baculovirus expression system using CDK9 substrate at 1 uM in presence of ATP by Mobility shift assay
[9] = target: Casein kinase I isoform gamma-1 (Homo sapiens) (UniProt Q9HCP0); experiment: Inhibition of N-terminal GST-fused full length human CK1gamma1 (1 to 422 residues) expressed in baculovirus expression system using CKtide as substrate at 1 uM in presence of ATP by Mobility shift assay
[10] = target: Casein kinase I isoform gamma-2 (Homo sapiens) (UniProt P78368); experiment: Inhibition of N-terminal GST-fused full length human CK1gamma2 (1 to 415 residues) expressed in baculovirus expression system using CKtide as substrate at 1 uM in presence of ATP by Mobility shift assay
[11] = target: Citron Rho-interacting kinase (Homo sapiens) (UniProt O14578); experiment: Inhibition of N-terminal GST-fused human CRIK catalytic domain (1 to 449 residues) expressed in baculovirus expression system using Histone H3 peptide as substrate at 1 uM in presence of ATP by Mobility shift assay
[12] = target: Dual specificity tyrosine-phosphorylation-regulated kinase 1B (Homo sapiens) (UniProt Q9Y463); experiment: Inhibition of N-terminal GST-fused full length human DYRK1B (1 to 629 residues) expressed in baculovirus expression system using DYRKtide-F as substrate at 1 uM in presence of ATP by Mobility shift assay
[13] = target: Homeodomain-interacting protein kinase 1 (Homo sapiens) (UniProt Q86Z02); experiment: Inhibition of N-terminal GST-fused human HIPK1 catalytic domain (158 to 555 residues) expressed in baculovirus expression system using DYRKtide-F as substrate at 1 uM in presence of ATP by Mobility shift assay
[14] = target: Interleukin-1 receptor-associated kinase 4 (Homo sapiens) (UniProt Q9NWZ3); experiment: Inhibition of N-terminal GST-fused full length human IRAK4 (1 to 460 residues) expressed in baculovirus expression system using IRAK1 peptide as substrate at 1 uM in presence of ATP by Mobility shift assay
[15] = target: Mitogen-activated protein kinase 9 (Homo sapiens) (UniProt P45984); experiment: Inhibition of N-terminal GST-fused human JNK2 catalytic domain (1 to 364 residues) expressed in Escherichia coli expression system using Modified ERKtide as substrate at 1 uM in presence of ATP by Mobility shift assay
[16] = target: Mitogen-activated protein kinase kinase kinase kinase 2 (Homo sapiens) (UniProt Q12851); experiment: Inhibition of N-terminal GST-fused full length human MAP4K2 (1 to 820 residues) expressed in baculovirus expression system using S6K2 peptide as substrate at 1 uM in presence of ATP by Mobility shift assay
[17] = target: Ribosomal protein S6 kinase alpha-4 (Homo sapiens) (UniProt O75676); experiment: Inhibition of N-terminal GST-fused full length human MSK2 (1 to 772 residues) expressed in baculovirus expression system using Crosstide as substrate at 1 uM in presence of ATP by Mobility shift assay
[18] = target: Serine/threonine-protein kinase 3 (Homo sapiens) (UniProt Q13188); experiment: Inhibition of N-terminal GST-fused full length human MST2 (1 to 491 residues) expressed in baculovirus expression system using IRS1 as substrate at 1 uM in presence of ATP by Mobility shift assay
[19] = target: Mitogen-activated protein kinase 14 (Homo sapiens) (UniProt Q16539); experiment: Inhibition of N-terminal GST-fused truncated human p38alpha (9 to 352 residues) expressed in Escherichia coli expression system using Modified Erktide as substrate at 1 uM in presence of ATP by Mobility shift assay
[20] = target: [Pyruvate dehydrogenase (acetyl-transferring)] kinase isozyme 2, mitochondrial (Homo sapiens) (UniProt Q15119); experiment: Inhibition of N-terminal GST-fused full length human PDHK2 (1 to 407 residues) expressed in baculovirus expression system using PDHKtide as substrate at 1 uM in presence of ATP by Mobility shift assay
[21] = target: Phosphorylase b kinase gamma catalytic chain, skeletal muscle/heart isoform (Homo sapiens) (UniProt Q16816); experiment: Inhibition of N-terminal GST-fused full length human PHKG1 (1 to 387 residues) expressed in baculovirus expression system using GS peptide as substrate at 1 uM in presence of ATP by Mobility shift assay
[22] = target: Protein kinase C epsilon type (Homo sapiens) (UniProt Q02156); experiment: Inhibition of N-terminal GST-fused human full length PKC-epsilon (1 to 737 residues ) expressed in baculovirus expression system using PKC peptide as substrate at 1 uM in presence of ATP by Mobility shift assay
Protein kinase C epsilon type (Homo sapiens), sequence (Q02156 whole entry, the tested form may be a part): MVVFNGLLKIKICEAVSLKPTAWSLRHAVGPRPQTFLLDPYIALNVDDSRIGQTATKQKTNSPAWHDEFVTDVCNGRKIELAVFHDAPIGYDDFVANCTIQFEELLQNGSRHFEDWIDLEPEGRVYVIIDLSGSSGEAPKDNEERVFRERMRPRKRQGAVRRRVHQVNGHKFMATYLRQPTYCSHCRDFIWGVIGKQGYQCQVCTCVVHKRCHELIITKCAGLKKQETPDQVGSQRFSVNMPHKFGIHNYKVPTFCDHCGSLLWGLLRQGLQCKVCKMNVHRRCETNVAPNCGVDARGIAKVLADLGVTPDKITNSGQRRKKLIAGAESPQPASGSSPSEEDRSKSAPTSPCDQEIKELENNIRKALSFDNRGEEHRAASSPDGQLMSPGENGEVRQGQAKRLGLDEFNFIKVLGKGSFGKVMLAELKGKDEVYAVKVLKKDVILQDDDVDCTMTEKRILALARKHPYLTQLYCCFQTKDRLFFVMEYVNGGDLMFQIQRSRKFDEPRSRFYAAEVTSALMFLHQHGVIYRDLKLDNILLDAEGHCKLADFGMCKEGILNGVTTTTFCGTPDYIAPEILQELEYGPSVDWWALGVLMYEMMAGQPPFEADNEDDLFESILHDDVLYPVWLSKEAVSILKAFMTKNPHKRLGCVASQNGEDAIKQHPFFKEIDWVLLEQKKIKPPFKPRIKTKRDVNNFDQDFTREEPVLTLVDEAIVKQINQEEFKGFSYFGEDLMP

Tyrosine-protein kinase Yes (Homo sapiens), sequence (P07947 2-543 limits assumed): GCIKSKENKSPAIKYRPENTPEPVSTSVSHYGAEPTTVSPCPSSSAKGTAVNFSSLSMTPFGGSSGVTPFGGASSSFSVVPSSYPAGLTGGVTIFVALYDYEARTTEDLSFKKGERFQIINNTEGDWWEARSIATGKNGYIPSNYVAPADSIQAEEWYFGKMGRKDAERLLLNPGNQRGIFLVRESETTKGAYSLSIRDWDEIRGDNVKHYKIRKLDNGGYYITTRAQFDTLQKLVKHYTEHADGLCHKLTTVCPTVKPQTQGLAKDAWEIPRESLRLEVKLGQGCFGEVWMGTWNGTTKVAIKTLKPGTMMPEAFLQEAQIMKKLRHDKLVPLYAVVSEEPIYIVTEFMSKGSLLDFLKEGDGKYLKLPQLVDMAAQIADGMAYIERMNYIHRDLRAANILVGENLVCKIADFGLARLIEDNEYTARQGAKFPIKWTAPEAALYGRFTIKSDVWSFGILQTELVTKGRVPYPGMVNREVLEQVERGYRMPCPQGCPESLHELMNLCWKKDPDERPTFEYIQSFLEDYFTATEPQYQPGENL
Dual specificity tyrosine-phosphorylation-regulated kinase 1B (Homo sapiens), sequence (Q9Y463 whole entry, looked up, the tested form may be a part): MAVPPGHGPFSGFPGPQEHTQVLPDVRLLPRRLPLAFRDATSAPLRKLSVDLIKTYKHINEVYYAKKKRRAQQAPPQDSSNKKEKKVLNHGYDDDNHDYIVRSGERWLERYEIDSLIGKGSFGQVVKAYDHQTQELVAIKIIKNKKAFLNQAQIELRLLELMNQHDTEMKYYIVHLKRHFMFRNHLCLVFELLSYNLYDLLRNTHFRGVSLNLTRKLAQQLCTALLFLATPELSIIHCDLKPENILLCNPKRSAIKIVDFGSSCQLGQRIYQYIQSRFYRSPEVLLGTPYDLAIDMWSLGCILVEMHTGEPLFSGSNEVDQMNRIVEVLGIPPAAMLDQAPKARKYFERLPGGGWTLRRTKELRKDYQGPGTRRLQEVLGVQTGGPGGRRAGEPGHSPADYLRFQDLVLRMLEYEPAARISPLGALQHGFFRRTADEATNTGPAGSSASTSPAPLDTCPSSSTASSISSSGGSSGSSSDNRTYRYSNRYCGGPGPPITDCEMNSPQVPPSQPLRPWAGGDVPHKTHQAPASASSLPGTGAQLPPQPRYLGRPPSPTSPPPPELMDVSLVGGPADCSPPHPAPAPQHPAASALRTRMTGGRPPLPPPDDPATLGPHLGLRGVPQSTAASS
Tyrosine-protein kinase Fer (Homo sapiens), sequence (P16591 whole entry, looked up, the tested form may be a part): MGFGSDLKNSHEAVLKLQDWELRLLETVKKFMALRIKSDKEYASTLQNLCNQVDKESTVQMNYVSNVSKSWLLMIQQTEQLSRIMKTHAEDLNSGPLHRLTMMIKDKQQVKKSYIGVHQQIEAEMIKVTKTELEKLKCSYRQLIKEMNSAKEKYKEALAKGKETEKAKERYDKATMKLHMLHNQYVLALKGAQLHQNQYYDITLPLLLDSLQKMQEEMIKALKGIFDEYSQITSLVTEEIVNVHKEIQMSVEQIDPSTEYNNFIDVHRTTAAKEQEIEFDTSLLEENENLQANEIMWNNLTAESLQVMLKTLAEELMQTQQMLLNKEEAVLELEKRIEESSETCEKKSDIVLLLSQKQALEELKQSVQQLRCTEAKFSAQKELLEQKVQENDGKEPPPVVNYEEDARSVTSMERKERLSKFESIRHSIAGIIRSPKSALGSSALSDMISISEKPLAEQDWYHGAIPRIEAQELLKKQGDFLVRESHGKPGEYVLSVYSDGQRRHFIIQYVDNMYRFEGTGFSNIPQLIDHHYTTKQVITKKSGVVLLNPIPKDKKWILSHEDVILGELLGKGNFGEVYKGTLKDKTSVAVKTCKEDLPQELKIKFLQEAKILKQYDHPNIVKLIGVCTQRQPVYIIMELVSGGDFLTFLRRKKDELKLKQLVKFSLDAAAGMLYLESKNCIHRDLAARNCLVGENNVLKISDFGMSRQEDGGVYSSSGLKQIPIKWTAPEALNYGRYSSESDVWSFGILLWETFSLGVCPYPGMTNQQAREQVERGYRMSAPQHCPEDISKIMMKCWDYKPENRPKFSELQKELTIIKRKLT
Interleukin-1 receptor-associated kinase 4 (Homo sapiens), sequence (Q9NWZ3 whole entry, the tested form may be a part): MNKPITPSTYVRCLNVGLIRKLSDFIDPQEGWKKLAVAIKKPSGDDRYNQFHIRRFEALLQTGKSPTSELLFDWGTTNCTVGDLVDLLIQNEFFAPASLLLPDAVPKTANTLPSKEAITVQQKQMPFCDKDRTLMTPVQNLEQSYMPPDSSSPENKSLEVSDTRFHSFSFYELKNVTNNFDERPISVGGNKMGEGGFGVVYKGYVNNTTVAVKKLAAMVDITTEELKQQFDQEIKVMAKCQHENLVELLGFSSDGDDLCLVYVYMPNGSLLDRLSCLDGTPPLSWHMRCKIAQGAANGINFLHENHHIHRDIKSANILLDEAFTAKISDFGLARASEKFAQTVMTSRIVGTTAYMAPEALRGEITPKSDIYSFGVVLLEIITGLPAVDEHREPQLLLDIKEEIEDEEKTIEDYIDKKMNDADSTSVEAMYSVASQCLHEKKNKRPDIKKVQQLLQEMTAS
Tyrosine-protein kinase Fes/Fps (Homo sapiens), sequence (P07332 whole entry, the tested form may be a part): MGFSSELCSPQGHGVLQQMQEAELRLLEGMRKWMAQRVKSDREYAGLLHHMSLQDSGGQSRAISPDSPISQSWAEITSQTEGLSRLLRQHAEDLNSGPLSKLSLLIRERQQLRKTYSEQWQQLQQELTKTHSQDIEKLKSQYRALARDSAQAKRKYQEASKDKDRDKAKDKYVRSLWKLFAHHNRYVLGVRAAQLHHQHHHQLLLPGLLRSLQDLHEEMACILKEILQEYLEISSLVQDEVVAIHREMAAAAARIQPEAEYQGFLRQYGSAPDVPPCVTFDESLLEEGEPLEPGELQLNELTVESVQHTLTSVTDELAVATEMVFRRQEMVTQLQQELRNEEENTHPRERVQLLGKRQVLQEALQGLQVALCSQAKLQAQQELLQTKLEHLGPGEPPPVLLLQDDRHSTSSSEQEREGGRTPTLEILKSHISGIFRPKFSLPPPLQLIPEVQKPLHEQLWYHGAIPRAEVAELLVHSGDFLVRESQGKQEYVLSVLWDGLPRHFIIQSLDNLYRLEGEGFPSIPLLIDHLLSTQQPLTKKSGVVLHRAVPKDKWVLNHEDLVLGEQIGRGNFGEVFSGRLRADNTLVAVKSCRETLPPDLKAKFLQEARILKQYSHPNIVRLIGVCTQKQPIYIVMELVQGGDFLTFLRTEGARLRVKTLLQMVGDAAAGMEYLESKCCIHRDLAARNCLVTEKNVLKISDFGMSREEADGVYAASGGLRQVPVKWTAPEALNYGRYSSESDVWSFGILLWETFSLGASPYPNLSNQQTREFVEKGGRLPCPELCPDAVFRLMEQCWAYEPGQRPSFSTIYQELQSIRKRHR
Ribosomal protein S6 kinase alpha-4 (Homo sapiens), sequence (O75676 whole entry, looked up, the tested form may be a part): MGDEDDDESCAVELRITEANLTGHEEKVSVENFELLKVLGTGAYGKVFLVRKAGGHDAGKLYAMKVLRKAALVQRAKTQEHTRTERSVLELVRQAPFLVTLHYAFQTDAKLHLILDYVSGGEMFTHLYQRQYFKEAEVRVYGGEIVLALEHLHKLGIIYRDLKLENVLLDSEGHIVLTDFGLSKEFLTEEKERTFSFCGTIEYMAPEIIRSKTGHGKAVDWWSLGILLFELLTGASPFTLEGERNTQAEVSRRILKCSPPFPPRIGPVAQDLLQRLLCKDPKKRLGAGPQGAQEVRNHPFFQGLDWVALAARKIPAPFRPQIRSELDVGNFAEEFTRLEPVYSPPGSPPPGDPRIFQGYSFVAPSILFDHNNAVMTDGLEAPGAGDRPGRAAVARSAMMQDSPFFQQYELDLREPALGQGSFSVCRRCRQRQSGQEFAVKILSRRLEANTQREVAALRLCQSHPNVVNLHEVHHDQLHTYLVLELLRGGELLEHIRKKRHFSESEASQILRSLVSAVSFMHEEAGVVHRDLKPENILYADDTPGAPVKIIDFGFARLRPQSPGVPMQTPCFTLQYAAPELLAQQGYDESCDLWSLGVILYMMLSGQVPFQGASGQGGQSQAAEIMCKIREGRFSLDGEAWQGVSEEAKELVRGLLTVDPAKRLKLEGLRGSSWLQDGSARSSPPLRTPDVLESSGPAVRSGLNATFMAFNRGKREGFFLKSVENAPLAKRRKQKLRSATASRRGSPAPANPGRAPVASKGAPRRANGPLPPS

Structure (SMILES): Cc1cc(C)c(CNC(=O)c2cc(Cl)c3c(c2C)O[C@@](C)([C@H]2CC[C@H](N(C)C)CC2)O3)c(=O)[nH]1 [VALEMETOSTAT]
- inhibition [1]: -2.3%
- inhibition [2]: -3.7%
- inhibition [3]: -2.7%
- inhibition [4]: -1.8%
- inhibition [5]: -3.6%
- inhibition [6]: -4.5%
- inhibition [7]: -7.2%
- inhibition [8]: 4.3%
- inhibition [9]: -1.8%
- inhibition [10]: -5.8%
- inhibition [11]: -5%
- inhibition [12]: -9.8%
- inhibition [13]: 0.5%
- inhibition [14]: -4.1%
- inhibition [15]: -5%
- inhibition [16]: 2.3%
- inhibition [17]: -2%
- inhibition [18]: -1.4%
- inhibition [19]: -8%
- inhibition [20]: 1.4%
- inhibition [21]: -3.7%
- inhibition [22]: 16.4%

Structure (SMILES): Cc1cc(C)c(CNC(=O)c2cc(Br)c3c(c2C)O[C@@](C)([C@H]2CC[C@H](N(C)C)CC2)O3)c(=O)[nH]1
- inhibition [1]: -1.5%
- inhibition [2]: 0.1%
- inhibition [3]: -0.6%
- inhibition [4]: -1.6%
- inhibition [5]: -1.9%
- inhibition [6]: -1.4%
- inhibition [7]: -2.9%
- inhibition [8]: -5.3%
- inhibition [9]: 0.5%
- inhibition [10]: -2.8%
- inhibition [11]: -7.4%
- inhibition [12]: 2.7%
- inhibition [13]: -4.7%
- inhibition [14]: -5.6%
- inhibition [15]: -4%
- inhibition [16]: 4.5%
- inhibition [17]: 0.1%
- inhibition [18]: -2.1%
- inhibition [19]: -7.2%
- inhibition [20]: 1.6%
- inhibition [21]: -1.5%
- inhibition [22]: 17%
